Laboratory results from US20130004424A1, “METHODS FOR DETERMINING AGENTS TARGETING MENA ISOFORMS AND USES THEREOF FOR DIAGNOSIS AND TREATMENT OF METASTATIC TUMORS” (priority 2010, published 2013).

Tests used:
[1] = tested on: Mena^INV cells; conditions: both in vitro and in vivo; cited from earlier work
[2] = tested on: Mena^INV cells; experiment: in vivo invasion assay, collection needle containing EGF and erlotinib; conditions: Mena^INV cells vs MTLn3-EGFP control cells; collection needle contained both EGF and erlotinib
Text: (B) Graphic of in vivo assay with needle collection. Primary tumor may be xenograft.
Collection needle contained both EGF and erlotinib. MTLn3-EGFP cells are control. **p<0.01, ***p<0.001.
Since cells expressing Mena^+ or Mena^INV/+ will move up an EGF gradient, when the cells expressing Mena^+ or Mena^INV/+ are in vivo, the cells expressing Mena^+ or Mena^INV/+ will move up the imposed EGF gradient and can be needle collected. If the putative agent does in fact inhibit Mena^+ or Mena^INV/+, the sensitivity of cells expressing Mena^+ or Mena^INV/+ drops and fewer cells will move up the EGF gradient.

C#Cc1cccc(Nc2ncnc3cc(OCCOC)c(OCCOC)cc23)c1 [erlotinib]
resistance of cells to EGFR inhibitor [1]: exhibit resistance | sensitivity of in vivo invasion to inhibition by erlotinib [2]: less sensitive to inhibition
